Measurements published in US20050009889A1 (priority 2002, published 2005).
Marks after values point to notes of the source that are not given here.

Columns and labels:
Format in all cases: in vivo
[1] = system: Erysiphe graminis f. sp. tritici; experiment: Test A: preventive control of wheat powdery mildew on wheat seedlings; settings: wheat seedlings sprayed to run-off, inoculated next day, rated after 7 days; concentration not given
From the text: (§1) General protocol for preparing test suspensions: Test compounds are first dissolved in acetone in an amount equal to 3% of the final volume and then suspended at the desired concentration (in ppm) in acetone and purified water (50/50 mix) containing 250 ppm of the surfactant Trem® 014 (polyhydric alcohol esters). The resulting test suspensions are then used in the following tests. Spraying a 200 ppm test suspension to the point of run-off on the test plants is the equivalent of a rate of 500 g/ha.
The test suspension was sprayed to the point of run-off on wheat seedlings. The following day the seedlings were inoculated with a spore dust of Erysiphe graminis f. sp. tritici, (the causal agent of wheat powdery mildew) and incubated in a growth chamber at 20° C. for 7 days, after which disease ratings were made.

[2] = system: Plasmopara viticola; experiment: Test G: curative control of grape downy mildew on grape seedlings
From the text: as §1
Grape seedlings are inoculated with a spore suspension of Plasmopara viticola (the casual agent of grape downy mildew) and incubated in a saturated atmosphere at 20° C. for 24 h. The next day, test suspension is sprayed to the point of run-off and the treated plants are moved to a growth chamber at 20° C. for 6 days, and then incubated in a saturated atmosphere at 20° C. for 24 h, after which disease ratings are made.

[3] = system: Puccinia recondita; experiment: Test B: preventive control of wheat leaf rust on wheat seedlings; settings: wheat seedlings sprayed to run-off, inoculated next day; concentration not given
From the text: as §1
(§2) The test suspension was sprayed to the point of run-off on wheat seedlings. The following day the seedlings were inoculated with a spore suspension of Puccinia recondita (the causal agent of wheat leaf rust) and incubated in a saturated atmosphere at 20° C. for 24 h, and then moved to a growth chamber at 20° C. for 6 days, after which disease ratings were made.

[4] = system: Plasmopara viticola; experiment: Test E: preventive control of grape downy mildew on grape seedlings; settings: grape seedlings sprayed to run-off, inoculated next day; concentration not given
From the text: as §1
as §2, with “grape” for “wheat”, “Plasmopara viticola” for “Puccinia recondita”, “grape downy mildew)” for “wheat leaf rust)”, “h,” for “h, and then”, “days, and then incubated in a saturated atmosphere at 20° C. for 24 h,” for “days,”

[5] = system: Phytophthora infestans; settings: tomato seedlings sprayed to run-off, inoculated next day; concentration not given
[6] = system: Pyricularia oryzae; settings: rice seedlings sprayed to run-off, inoculated next day; concentration not given
[7] = system: Phytophthora infestans; settings: curative; 100 ppm on potato seedlings
[8] = system: grape downy mildew; experiment: Curative utility, in addition to the Tests of Table A; settings: especially for grape downy mildew
[9] = grape seedlings inoculated, sprayed next day (curative), concentration not given

Compound | Test A disease control rating (100 = 100% disease control, 0 = no control) [1] | Test G disease control rating (100 = 100% disease control, 0 = no control) [2, 9] | Test B disease control rating (100 = 100% disease control, 0 = no control) [3] | Test E disease control rating (100 = 100% disease control, 0 = no control) [4] | Test D disease control rating (100 = 100% disease control, 0 = no control) [5] | Test C disease control rating (100 = 100% disease control, 0 = no control) [6] | Test F disease control rating (100 = 100% disease control, 0 = no control) [7] | curative utility [8] | Test G disease control rating (100 = 100% disease control, 0 = no control) ([2]; grape seedlings, curative, 20 ppm) | Test G disease control rating (100 = 100% disease control, 0 = no control) ([2]; grape seedlings, curative, 100 ppm (footnote *))
Cc1ccc(C(=O)NCc2ncc(C(F)(F)F)cc2Cl)c(O)n1 [Compound 13] | 0% | 8% | 9% | 8% | 7% | 0% |  |  |  | 
Cc1cc(Cl)c(C(=O)NCc2ncc(C(F)(F)F)cc2Cl)c(Cl)n1 [Compound 5, 2,4-Dichloro-N-[[3-chloro-5-(trifluoromethyl)-2-pyridinyl]methyl]-6-methyl-3-pyridinecarboxamide] | 0% | 96% | 8% | 100% | 100% |  | 100# % | significant curative utility |  | 
Cc1nc(C(F)(F)C(F)(F)F)ccc1C(=O)NCc1ncc(C(F)(F)F)cc1Cl [Compound 15] | 69% | 8% | 68% | 8% | 16% | 88% |  |  |  | 
CC(NC(=O)c1c(Cl)ccnc1Cl)c1ncc(C(F)(F)F)cc1Cl (single isomer, unassigned; (+)) [Compound 22, (+)-2,4-Dichloro-N-[1-[3-chloro-5-(trifluoromethyl)-2-pyridinyl]ethyl]-3-pyridinecarboxamide] |  |  |  | 100% | 100% | 0% | 100# % | significant curative utility | 100** % | 
O=C(NCc1ncc(C(F)(F)F)cc1Cl)c1ccc(C(F)(F)F)nc1 [Compound 18] | 0% | 0% | 32% | 0% | 25% | 0% |  |  |  | 
CCOc1ncccc1C(=O)NCc1ncc(C(F)(F)F)cc1Cl [Compound 10] | 0% | 23% | 9% | 23% | 3% | 0% |  |  |  | 
2,4-Dichloro-N-[[3-chloro-5-(trifluoromethyl)-2-pyridinyl]methyl]-3-pyridinecarboxamide [Compound 19] | 0% |  | 35% | 100% | 100% | 0% | 97# % | significant curative utility |  | 37* %
Cc1nc(Cl)ccc1C(=O)NCc1ncc(C(F)(F)F)cc1Cl [Compound 17] | 0% | 16% | 9% | 16% | 79% | 13% |  |  |  | 
